Results: US7741521B2, “Inhibition of bid-induced cell-death using small organic molecules” (The Burnham Institute, priority 2004, dated 2010)
pKd: −log10 of the molar value. Entries after “also recorded” stand apart in the source; their conditions may differ.

Columns and labels:
BID = target: T1, BID (Mus musculus, UniProt P70444); assay: NMR binding to BID (HSQC/TROSY chemical shifts)
T1 construct: poly-His (N); made in house; host or cells: E. coli BL21
T1 sequence (P70444 1-195): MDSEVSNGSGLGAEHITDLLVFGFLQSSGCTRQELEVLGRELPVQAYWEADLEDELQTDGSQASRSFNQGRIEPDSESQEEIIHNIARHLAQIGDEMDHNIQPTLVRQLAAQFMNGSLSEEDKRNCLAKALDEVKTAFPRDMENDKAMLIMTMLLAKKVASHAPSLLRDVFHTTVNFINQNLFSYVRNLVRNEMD
Method: Recombinant full length mouse BID was produced from a pET-19b (Novagen) plasmid construct containing the entire nucleotide sequence for BID fused to an N-terminal poly-His tag. Unlabeled BID was expressed in E. coli BL21 in LB media at 37° C., with an induction period of 3-4 hours with 1 mM IPTG. ^15N-labeled BID was similarly produced, with growth occurring in M9 media supplemented with 0.5 g/L ^15NH4Cl. ε-^13C-Met labeled BID was produced in M9 media supplemented with 50 mg/L of ε-^13C-Met at time of induction with IPTG. Following cell lysis, soluble BID was purified over a Hi-Trap chelating column (Amersham, Pharmacia), followed by ion-exchange purification with a MonoQ (Amersham, Pharmacia) column. Final BID samples were dialyzed into a buffer appropriate for the subsequent experiments. tBID was produced by cleavage of purified BID with caspase-8, as known in the art.
For all NMR experiments, BID was exchanged into 50 mM phosphate buffer at pH 7.5 and measurements were performed at 30° C. 2D [^15N,^1H]-TROSY spectra for BID were measured with 0.5 mM samples of ^15N-labeled BID. 2D [^13C,^1H]-HSQC spectra were measured with 0.2 mM samples of ε-^13C-Met labeled BID. 2D [^1H,^1H]-NOESY spectra were acquired with small molecules at a concentration of 0.9 mM in the presence of 10 μM BID. T1ρ competition experiments (200 msec spin-lock duration) were performed on either 100 μM BI-2A7 or a mixture of 100 μM BI-2A7 and 10 μM BI-6C9, in the presence and absence of 10 μM BID. All experiments were performed with either a 500 MHz or 600 MHz Bruker Avance spectrometer, both equipped with TXI probes. Typical parameters for the 2D [^15N,^1H]-TROSY spectra included ^1H and ^15N π/2 pulse lengths of 11 μsec and 40 μsec, respectively; ^1H and ^15N sweep widths of 12 ppm and 32 ppm, respectively; 16 scans and 256 indirect acquisition points and a recycle delay of 1 sec. For the 2D [^13C,^1H]-HSQC typical parameters included ^1H and ^13C π/2 pulse lengths of 10 μsec and 13 μsec, respectively; ^1H and ^13C sweep widths of 12 ppm and 5 ppm, respectively; 128 scans and 80 indirect acquisition points and a recycle delay of 1 sec. […]
To examine the binding affinity of some compounds of the invention to BID, 2D [^13C,^1H]-HSQC spectra in presence of ^13C methionine-labeled protein were measured, as at least one methionine is present in the hydrophobic groove of BID (FIG. 4B). […]
Monitoring the variation of cross-peak intensity upon addition of increasing amounts of compound II, allowed to estimate its dissociation constant KD. The arrow on FIG. 5C indicates the peak that was monitored to determine the Kd for compound II. […]

BCL-XL = BCL-XL (Homo sapiens, UniProt Q07817); assay: NMR-binding assay against BCL-XL
caspase-8 = caspase-8 (Homo sapiens, UniProt Q14790); assay: Caspase-8 mediated BID cleavage (SDS page); format: biochemical; conditions: concentrations used in the cellular assay
caspase-3 = target: T2, caspase-3 (Homo sapiens, UniProt P42574); assay: Caspase-3 in vitro assay; format: biochemical; conditions: concentrations used in the cellular assay
T2 sequence (P42574 29-175 limits assumed): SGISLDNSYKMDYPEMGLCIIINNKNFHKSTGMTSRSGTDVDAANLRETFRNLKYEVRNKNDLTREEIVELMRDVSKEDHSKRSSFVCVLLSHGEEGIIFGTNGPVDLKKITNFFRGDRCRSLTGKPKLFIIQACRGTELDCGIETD
T2 sequence (P42574 176-277 limits assumed): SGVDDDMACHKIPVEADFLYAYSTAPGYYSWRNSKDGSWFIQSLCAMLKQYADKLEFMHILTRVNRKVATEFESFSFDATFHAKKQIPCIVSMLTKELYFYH

BCL-XL, sequence (Q07817 whole entry, species assumed): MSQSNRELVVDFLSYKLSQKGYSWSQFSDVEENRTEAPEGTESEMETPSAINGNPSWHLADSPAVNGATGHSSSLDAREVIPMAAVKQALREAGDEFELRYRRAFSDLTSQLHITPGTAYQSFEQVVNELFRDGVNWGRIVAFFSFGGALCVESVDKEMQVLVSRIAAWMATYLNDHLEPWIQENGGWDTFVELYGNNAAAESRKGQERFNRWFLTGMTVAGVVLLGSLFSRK
caspase-8, sequence (Q14790 217-374 limits assumed, species assumed): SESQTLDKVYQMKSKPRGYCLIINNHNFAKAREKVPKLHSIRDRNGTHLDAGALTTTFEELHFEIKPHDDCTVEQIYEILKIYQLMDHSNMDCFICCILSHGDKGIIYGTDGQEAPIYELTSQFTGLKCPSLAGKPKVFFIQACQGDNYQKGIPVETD
caspase-8, sequence (Q14790 385-479 limits assumed, species assumed): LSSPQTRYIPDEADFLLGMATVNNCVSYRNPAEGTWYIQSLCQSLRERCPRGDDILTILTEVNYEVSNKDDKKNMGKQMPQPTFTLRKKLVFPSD

| Compound | specific binding to BID, affinity range (BID; 2D [15N-1H]-TROSY chemical shift perturbations) | binding to BID (BID; NMR) | binding to BCL-XL (BCL-XL) | pKd (BID; 2D [13C,1H]-HSQC, 13C methionine-labeled BID, cross-peak intensity upon titration, read-out: dissociation constant KD) | effect on caspase-8 mediated BID cleavage (caspase-8) | inhibition of caspase-3 (caspase-3) |
| --- | --- | --- | --- | --- | --- | --- |
| Nc1ccc(Sc2ccc(NC(=O)CNC(=O)c3ccc(O)cc3O)cc2)cc1 [Compound I, N-((4-(4-aminophenylthio)phenylcarbamoyl)methyl)-2,4-dihydroxybenzamide] | low micromolar range | strong binder | did not show appreciable binding |  |  |  |
| COc1ccc(S(=O)(=O)NCCCC(=O)Nc2ccc(Sc3ccc(N)cc3)cc2)cc1 [Compound II, N-[4-(4-amino-phenylsulfanyl)-phenyl]-4-(4-methoxy-benzenesulfonylamino)-butyramide] |  |  | does not bind appreciably; also recorded: did not show appreciable binding | ~4.70 | does not impair | does not inhibit |
